Broadly, the IC50 is the concentration that gives 50% inhibition. A word on the LD50: it is the dose expected to kill half of the subjects tested. What is called Kd is the free concentration of one partner at which half of the binding sites on the other are occupied at equilibrium, for simple one-to-one binding. As a reminder, the GI50 is the concentration giving 50% growth inhibition. Usually Cmax stands for the highest concentration seen after dosing.

These results are taken from ChEMBL document CHEMBL4765285, “Discovery of orally active indirubin-3'-oxime derivatives as potent type 1 FLT3 inhibitors for acute myeloid leukemia” (Eur J Med Chem, 2020).

For data set [1], the target named is T1, BDNF/NT-3 growth factors receptor (Homo sapiens, UniProt Q16620). The data set is described as follows: Inhibition of human TrkB in presence of ATP.
The nature of data set [2]: Acute toxicity in ICR mouse assessed as median lethal dose. The conditions noted are these: in vivo.
The target of data set [3] is Tyrosine-protein kinase Mer (Homo sapiens, UniProt Q12866). The data set is described as follows: Inhibition of human MER in presence of ATP.
Data set [4] concerns the target Receptor-type tyrosine-protein kinase FLT3 (Homo sapiens, UniProt P36888, ITD). In words: Binding affinity to human FLT3 ITD mutant in presence of ATP by Lanthascreen Eu kinase binding assay. Background: In TR-FRET formats the signal depends on donor and acceptor labels being close together.
The target in data set [5] is T1, BDNF/NT-3 growth factors receptor. The data set is described as follows: Inhibition of human TrkB at 100 nM in presence of ATP relative to control.
Target sequence in this assay (Q16620 32-822 limits assumed): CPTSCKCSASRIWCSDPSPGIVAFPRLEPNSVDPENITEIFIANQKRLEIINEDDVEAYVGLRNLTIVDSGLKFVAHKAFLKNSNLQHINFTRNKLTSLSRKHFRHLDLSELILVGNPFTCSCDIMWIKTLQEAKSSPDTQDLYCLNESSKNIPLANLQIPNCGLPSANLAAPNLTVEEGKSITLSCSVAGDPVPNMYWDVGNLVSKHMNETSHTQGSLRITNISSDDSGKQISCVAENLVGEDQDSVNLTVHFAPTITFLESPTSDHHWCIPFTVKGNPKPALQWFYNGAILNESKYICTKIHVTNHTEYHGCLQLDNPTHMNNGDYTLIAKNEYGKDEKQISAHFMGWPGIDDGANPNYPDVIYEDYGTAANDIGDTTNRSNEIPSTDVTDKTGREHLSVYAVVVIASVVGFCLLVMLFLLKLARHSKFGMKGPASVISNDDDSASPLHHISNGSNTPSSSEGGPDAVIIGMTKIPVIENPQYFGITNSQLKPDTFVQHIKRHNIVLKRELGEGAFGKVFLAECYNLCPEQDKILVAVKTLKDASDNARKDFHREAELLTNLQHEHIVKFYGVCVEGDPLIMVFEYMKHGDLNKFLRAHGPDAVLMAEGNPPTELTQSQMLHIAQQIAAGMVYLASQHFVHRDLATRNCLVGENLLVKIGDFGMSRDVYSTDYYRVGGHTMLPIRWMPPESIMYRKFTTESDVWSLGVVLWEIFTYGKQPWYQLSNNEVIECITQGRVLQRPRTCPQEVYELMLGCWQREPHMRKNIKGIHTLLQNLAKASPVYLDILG
A further data set concerns MDA-MB-231. In words: cells. The conditions noted are these: Homo sapiens, MDA-MB-231, read-out: INH.
The subject of data set [6] is MOLM-14. In words: cells. The conditions noted are these: Homo sapiens.
Description: Antiproliferative activity against human MOLM14 cells harboring ITD mutant assessed as cell growth inhibition by MTT assay
Data set [7] in a line: Cmax in ICR mouse at 10 mg/kg, iv or po measured up to 1440 mins by LC-MS/MS analysis. The data set is classed as ADME, organism-based. Set-up: dose 10 mg/kg, time <=1440. The conditions noted are these: in vivo.
Data set [8] deals with Maternal embryonic leucine zipper kinase (Homo sapiens, UniProt Q14680). In words: Inhibition of human MELK in presence of ATP.
The next data set deals with hERG (KCNH2) (Homo sapiens, UniProt Q12809). In words: Inhibition of human ERG at 10 uM relative to control.
Data set [9] deals with MOLM-14. The data set is described as follows: cells. The conditions noted are these: Homo sapiens. This is another data set of the same source.
Description: Antiproliferative activity against human MOLM14 cells harboring ITD/D835Y mutant assessed as cell growth inhibition by MTT assay
The target of data set [10] is T2, Proto-oncogene tyrosine-protein kinase receptor Ret (Homo sapiens, UniProt P07949). The data set is described as follows: Inhibition of human RET at 100 nM in presence of ATP relative to control.
For data set [11], the target named is Tyrosine-protein kinase Mer (Homo sapiens) (UniProt Q12866). In words: Inhibition of human MER at 100 nM in presence of ATP relative to control.
Data set [12] concerns the target T2, Proto-oncogene tyrosine-protein kinase receptor Ret. In words: Inhibition of human RET in presence of ATP.
For data set [13], the target named is High affinity nerve growth factor receptor (Homo sapiens, UniProt P04629). The data set is described as follows: Inhibition of human TrkA at 100 nM in presence of ATP relative to control.
Sequence of High affinity nerve growth factor receptor (P04629 33-796 limits assumed): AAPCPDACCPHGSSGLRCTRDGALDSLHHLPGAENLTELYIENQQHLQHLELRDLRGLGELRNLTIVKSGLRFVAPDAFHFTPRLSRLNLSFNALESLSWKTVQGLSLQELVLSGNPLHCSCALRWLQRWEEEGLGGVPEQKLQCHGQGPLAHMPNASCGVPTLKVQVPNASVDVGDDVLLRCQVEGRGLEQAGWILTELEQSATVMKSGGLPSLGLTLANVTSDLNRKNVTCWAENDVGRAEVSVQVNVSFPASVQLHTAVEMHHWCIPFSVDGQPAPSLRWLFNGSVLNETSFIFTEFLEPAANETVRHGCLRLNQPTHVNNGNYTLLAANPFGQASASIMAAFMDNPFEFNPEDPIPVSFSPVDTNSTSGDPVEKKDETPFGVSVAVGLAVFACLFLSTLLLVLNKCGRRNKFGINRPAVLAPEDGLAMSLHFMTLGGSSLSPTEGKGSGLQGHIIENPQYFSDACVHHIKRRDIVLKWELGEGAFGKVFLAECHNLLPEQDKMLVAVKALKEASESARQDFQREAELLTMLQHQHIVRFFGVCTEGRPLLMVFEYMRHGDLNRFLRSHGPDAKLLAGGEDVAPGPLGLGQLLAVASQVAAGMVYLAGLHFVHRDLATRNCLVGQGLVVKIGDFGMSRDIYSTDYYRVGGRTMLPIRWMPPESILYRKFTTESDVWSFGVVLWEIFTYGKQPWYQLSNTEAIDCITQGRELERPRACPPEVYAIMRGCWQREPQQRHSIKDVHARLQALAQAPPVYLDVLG

T2 sequence (P07949 whole entry): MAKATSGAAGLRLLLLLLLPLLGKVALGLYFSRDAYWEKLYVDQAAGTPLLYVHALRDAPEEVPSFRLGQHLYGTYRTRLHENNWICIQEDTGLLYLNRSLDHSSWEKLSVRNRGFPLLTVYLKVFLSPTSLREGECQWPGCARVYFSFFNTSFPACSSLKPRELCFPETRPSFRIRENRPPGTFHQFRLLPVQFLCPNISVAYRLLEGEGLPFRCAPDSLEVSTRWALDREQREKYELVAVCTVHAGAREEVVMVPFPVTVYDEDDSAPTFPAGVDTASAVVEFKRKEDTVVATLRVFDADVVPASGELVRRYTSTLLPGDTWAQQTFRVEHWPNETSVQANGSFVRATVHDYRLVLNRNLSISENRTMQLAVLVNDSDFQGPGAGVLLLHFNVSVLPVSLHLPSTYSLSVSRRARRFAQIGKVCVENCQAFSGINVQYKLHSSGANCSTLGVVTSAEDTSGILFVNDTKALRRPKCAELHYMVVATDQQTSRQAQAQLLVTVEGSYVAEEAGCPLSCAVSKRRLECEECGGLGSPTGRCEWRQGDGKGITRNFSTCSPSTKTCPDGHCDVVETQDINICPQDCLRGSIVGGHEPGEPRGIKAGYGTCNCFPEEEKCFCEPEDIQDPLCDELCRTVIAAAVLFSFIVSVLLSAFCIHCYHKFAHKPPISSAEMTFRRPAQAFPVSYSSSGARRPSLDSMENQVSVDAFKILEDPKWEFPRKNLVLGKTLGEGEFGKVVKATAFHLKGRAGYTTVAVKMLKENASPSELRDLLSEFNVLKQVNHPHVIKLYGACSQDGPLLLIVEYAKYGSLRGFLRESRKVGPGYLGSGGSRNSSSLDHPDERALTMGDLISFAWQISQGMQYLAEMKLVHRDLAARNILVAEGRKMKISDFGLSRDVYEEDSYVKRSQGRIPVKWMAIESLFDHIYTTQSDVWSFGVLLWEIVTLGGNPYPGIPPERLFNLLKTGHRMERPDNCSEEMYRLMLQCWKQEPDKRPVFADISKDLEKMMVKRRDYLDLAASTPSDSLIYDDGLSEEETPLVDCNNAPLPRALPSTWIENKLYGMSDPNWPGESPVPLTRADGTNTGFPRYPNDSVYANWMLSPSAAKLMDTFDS
Sequence of Receptor-type tyrosine-protein kinase FLT3 (P36888 whole entry, looked up, change not shown): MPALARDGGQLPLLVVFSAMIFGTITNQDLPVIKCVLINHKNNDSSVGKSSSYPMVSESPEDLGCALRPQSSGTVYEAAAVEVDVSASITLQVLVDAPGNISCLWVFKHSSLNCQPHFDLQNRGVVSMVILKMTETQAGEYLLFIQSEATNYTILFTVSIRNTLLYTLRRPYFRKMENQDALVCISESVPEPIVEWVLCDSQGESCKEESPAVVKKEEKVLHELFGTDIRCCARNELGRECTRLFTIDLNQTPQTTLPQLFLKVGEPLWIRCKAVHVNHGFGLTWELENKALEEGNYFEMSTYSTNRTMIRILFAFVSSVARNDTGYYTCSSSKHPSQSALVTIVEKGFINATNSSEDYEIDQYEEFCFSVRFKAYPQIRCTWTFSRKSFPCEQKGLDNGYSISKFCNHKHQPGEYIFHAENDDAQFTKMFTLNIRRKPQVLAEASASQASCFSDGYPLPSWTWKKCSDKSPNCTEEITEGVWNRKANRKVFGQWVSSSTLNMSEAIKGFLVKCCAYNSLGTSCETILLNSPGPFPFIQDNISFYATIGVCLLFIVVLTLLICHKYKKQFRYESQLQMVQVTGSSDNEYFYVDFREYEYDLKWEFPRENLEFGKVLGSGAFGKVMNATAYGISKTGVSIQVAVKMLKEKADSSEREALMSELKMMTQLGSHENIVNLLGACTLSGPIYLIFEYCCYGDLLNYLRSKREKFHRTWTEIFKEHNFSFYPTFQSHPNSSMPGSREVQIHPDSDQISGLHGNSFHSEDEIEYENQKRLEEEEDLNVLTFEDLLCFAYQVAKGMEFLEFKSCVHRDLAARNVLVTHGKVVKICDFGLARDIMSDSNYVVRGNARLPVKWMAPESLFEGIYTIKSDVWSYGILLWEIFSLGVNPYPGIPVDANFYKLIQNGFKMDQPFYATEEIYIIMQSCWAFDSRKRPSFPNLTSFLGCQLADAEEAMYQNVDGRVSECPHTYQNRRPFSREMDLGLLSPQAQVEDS
Sequence of Tyrosine-protein kinase Mer (Q12866 whole entry): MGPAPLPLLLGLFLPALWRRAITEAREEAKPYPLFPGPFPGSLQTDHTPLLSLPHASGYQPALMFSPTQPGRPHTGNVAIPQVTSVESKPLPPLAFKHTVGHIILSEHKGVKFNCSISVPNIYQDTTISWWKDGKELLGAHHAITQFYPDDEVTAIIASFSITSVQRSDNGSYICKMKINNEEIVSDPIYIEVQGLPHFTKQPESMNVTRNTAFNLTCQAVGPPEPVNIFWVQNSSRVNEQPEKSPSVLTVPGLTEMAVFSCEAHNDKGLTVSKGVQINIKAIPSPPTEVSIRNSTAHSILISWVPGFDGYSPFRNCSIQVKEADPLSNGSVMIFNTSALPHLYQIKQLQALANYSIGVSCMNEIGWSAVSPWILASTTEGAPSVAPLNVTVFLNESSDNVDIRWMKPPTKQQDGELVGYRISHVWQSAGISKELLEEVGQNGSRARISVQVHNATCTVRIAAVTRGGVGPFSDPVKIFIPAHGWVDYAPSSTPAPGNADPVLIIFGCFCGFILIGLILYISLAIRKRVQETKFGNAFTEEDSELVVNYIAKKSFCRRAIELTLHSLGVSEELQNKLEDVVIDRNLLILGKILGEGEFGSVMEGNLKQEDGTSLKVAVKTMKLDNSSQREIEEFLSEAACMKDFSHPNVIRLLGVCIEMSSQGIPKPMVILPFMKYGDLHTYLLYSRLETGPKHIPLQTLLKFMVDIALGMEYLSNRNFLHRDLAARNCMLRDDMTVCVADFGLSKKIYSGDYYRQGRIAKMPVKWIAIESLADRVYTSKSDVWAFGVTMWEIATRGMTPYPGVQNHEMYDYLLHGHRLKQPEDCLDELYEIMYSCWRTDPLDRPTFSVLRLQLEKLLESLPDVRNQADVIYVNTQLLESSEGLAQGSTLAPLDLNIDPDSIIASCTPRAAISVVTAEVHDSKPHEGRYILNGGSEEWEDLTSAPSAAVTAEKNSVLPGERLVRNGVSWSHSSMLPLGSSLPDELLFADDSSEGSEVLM
Sequence of Tyrosine-protein kinase Mer (Homo sapiens) (Q12866 whole entry): as above
Description for MDA-MB-231: Antiproliferative activity against human MDA-MB-231 cells assessed as cell growth inhibition at 1 uM by WST assay relative to control

As for `Cl.O=C1Nc2ccc(F)cc2/C1=C1/Nc2ccccc2/C1=N\OCCN1CCNCC1`, the 50% inhibitory concentration (IC50) in [1] is 2.04 nM; in data set [3], 3.01 nM; in data set [8] it was 5.54 nM; in data set [12], 1.21 nM. In addition, in data set [2], the median lethal dose (LD50) is 4950 mg/kg. The Kd in data set [4] is < 0.25 nM. The inhibition in data set [5] is 100%; in data set [10], 98%; in [11], 100%; in data set [13], 99%. Besides, in the data set on MDA-MB-231, the inhibition at 1 µM came out at 8.95%. The GI50 in the data set on MOLM-14 [6] amounted to 1.85 nM; with MOLM-14 [9] it was 1.87 nM. Moreover, the maximum concentration (Cmax) in data set [7] came to 36.5 ng/mL. In addition, the inhibition at 10 µM at hERG (KCNH2) worked out at 21.4%.
